According to patent US9067898B1, “Isothiazole derivatives as GPR120 agonists for the treatment of type II diabetes” (Janssen Pharmaceutica NV, priority 2014, dated 2015):

Assays:
[1] = target: T1, short form of the GPR120 receptor (GPR120S) (Homo sapiens, UniProt Q5NUL3); test: Human GPR120 DiscoveRx PathHunter Beta-Arrestin assay, Procedure β-arrestin B; assay type: cell-based; details: PathHunter CHO-K1 GPR120S β-Arrestin cell line, 5000 cells/well, read-out: hGPR120 β-arrestin B EC50
T1 construct: host or cells: PathHunter CHO-K1 GPR120S β-Arrestin Cell Line
How it was run: (§1)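 PathHunter CHO-K1 β-arrestin cells expressed long-form GPR120 (Procedure A, 3000 cells/well) or short-form GPR120 (Procedure B, 5000 cells/well). Compounds were serially diluted from 25 µM and incubated 90 min at 37 °C in HBSS/20 mM HEPES/0.1% BSA, pH 7.4. Luminescence was read after 60 min detection at RT; EC50 comes from % activity versus positive control, Hill slope fixed at 1.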

[2] = target: T2, long form of human GPR120 (Homo sapiens, UniProt Q5NUL3); test: Human GPR120 DiscoveRx PathHunter Beta-Arrestin assay, Procedure β-arrestin A; assay type: cell-based; details: PathHunter CHO-K1 GPR120 β-Arrestin cell line, 3000 cells per well, read-out: hGPR120 β-arrestin A EC50
T2 construct: host or cells: PathHunter CHO-K1 GPR120 β-Arrestin Cell Line
How it was run: as §1

T1 sequence (Q5NUL3 whole entry): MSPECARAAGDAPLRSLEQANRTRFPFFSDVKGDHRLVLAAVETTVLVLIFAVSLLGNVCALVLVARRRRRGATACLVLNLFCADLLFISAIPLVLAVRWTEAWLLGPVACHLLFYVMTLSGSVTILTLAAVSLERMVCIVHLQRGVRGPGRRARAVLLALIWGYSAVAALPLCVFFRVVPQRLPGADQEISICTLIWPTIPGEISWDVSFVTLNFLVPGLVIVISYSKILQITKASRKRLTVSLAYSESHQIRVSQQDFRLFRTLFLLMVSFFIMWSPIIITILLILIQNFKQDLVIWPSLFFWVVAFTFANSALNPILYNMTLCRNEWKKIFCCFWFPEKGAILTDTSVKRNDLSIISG
T1 sequence (P32121 whole entry partner): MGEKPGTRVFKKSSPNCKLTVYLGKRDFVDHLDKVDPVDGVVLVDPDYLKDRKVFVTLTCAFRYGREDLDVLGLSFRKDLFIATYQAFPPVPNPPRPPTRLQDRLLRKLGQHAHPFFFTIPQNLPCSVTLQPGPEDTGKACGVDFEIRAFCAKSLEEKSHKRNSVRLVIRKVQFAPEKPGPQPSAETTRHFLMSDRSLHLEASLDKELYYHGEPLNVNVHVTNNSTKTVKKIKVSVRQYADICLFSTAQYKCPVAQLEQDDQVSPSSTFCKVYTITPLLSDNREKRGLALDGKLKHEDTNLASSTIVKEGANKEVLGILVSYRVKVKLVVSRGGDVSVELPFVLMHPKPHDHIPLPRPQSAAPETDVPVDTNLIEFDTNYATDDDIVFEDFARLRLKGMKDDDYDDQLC
T2 sequence (Q5NUL3 1-377 isoform Q5NUL3-1): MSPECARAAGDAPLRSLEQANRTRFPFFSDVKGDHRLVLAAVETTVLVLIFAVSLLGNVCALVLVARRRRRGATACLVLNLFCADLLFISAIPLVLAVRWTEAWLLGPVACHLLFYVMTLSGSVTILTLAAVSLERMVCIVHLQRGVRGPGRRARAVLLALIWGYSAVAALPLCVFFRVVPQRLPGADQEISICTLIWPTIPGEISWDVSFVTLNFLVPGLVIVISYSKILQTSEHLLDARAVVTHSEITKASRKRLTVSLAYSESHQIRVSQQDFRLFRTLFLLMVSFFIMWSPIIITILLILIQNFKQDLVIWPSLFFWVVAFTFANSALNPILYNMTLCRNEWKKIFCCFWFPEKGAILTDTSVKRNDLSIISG
T2 sequence (P32121 whole entry partner): as the sequence (P32121 whole entry partner) above

Compound | EC50 [1] | EC50 [2]
O=C(O)CCc1cc(F)c(OCc2c(-c3ccc(Cl)cc3F)nsc2C(F)(F)F)c(F)c1 [Cpd 74, 3-(4-((3-(4-chloro-2-fluorophenyl)-5-(trifluoromethyl)isothiazol-4-yl)methoxy)-3,5-difluorophenyl)propanoic acid] | 63 nM | 143 nM
CCc1ccc(-c2nsc(C(F)(F)F)c2COc2ccc(CCC(=O)O)c(F)c2F)cc1 [Cpd 73, 3-(4-((3-(4-ethylphenyl)-5-(trifluoromethyl)isothiazol-4-yl)methoxy)-2,3-difluorophenyl)propanoic acid] |  | 134 nM
OCCCc1cc(F)c(OCc2c(-c3ccc4c(c3)OCO4)nsc2C(F)(F)F)c(F)c1 [Cpd 93, 3-(4-[[3-(2H-1,3-benzodioxol-5-yl)-5-(trifluoromethyl)-1,2-thiazol-4-yl]methoxy]-3,5-difluorophenyl)propan-1-ol] | 27 nM | 38 nM
CCc1ccc(-c2cc(F)sc2COc2ccc(CCC(=O)O)c(C)c2C)cc1 [Cpd 1, 3-(4-[[3-(4-ethylphenyl)-5-fluorothiophen-2-yl]methoxy]-2,3-dimethylphenyl)propanoic acid] | 205 nM | 218 nM
Cc1ccc(-c2nsc(C(F)(F)F)c2COc2c(F)cc(CC(C)C(=O)O)cc2F)c(F)c1 (centres unmarked) [Cpd 76, 3-(3,5-difluoro-4-[[3-(2-fluoro-4-methylphenyl)-5-(trifluoromethyl)-1,2-thiazol-4-yl]methoxy]phenyl)-2-methylpropanoic acid] | 179 nM | 
O=C(O)CCc1cc(F)c(OCc2c(-c3ccc(Cl)c(F)c3)nsc2C(F)(F)F)c(F)c1 [Cpd 67, 3-(4-((3-(4-chloro-3-fluorophenyl)-5-(trifluoromethyl)isothiazol-4-yl)methoxy)-3,5-difluorophenyl)propanoic acid] | 43 nM | 86 nM
CCc1ccc(-c2snc(Cl)c2COc2ccc(CCC(=O)O)c(C)c2C)cc1 [Cpd 85, 3-(4-[[3-chloro-5-(4-ethylphenyl)-1,2-thiazol-4-yl]methoxy]-2,3-dimethylphenyl)propanoic acid] |  | 166 nM
OCCCc1cc(F)c(OCc2c(-c3ccc(Cl)cc3)nsc2C(F)(F)F)c(F)c1 [Cpd 100, 3-(4-[[3-(4-chlorophenyl)-5-(trifluoromethyl)-1,2-thiazol-4-yl]methoxy]-3,5-difluorophenyl)propan-1-ol] |  | 97 nM
Cc1c(CCC(=O)O)ccc(OCc2sc(F)cc2-c2ccc(Cl)cc2)c1C [Cpd 3, 3-(4-((3-(4-chlorophenyl)-5-fluorothiophen-2-yl)methoxy)-2,3-dimethylphenyl)propanoic acid] | 83 nM | 
O=C(O)CCc1cc(F)c(OCc2c(C3CCCC3)nsc2C(F)(F)F)c(F)c1 [Cpd 71, 3-(4-[[3-cyclopentyl-5-(trifluoromethyl)-1,2-thiazol-4-yl]methoxy]-3,5-difluorophenyl)propanoic acid] | 139 nM | 278 nM
OCCCc1cc(F)c(OCc2c(-c3ccc4c(c3)OCO4)csc2C(F)(F)F)c(F)c1 [Cpd 37, 3-(4-((4-(benzo[d][1,3]dioxol-5-yl)-2-(trifluoromethyl)thiophen-3-yl)methoxy)-3,5-difluorophenyl)propan-1-ol] | 22 nM | 57 nM
Cc1ccc(-c2nsc(C(F)(F)F)c2COc2c(F)cc(CCC(=O)O)cc2F)c(F)c1 [Cpd 65, 3-(3,5-difluoro-4-[[3-(2-fluoro-4-methylphenyl)-5-(trifluoromethyl)-1,2-thiazol-4-yl]methoxy]phenyl)propanoic acid] | 126 nM | 168 nM
O=C(O)CCc1cc(F)c(OCc2c(-c3ccc(Cl)cc3)nsc2C(F)(F)F)c(F)c1 [Cpd 79, 3-(4-[[3-(4-chlorophenyl)-5-(trifluoromethyl)-1,2-thiazol-4-yl]methoxy]-3,5-difluorophenyl)propanoic acid] | 62 nM | 71 nM

More lines, now with the values ahead:

EC50 [1] | EC50 [2] | Compound
88 nM | 112 nM | O=C(O)CCc1cc(F)c(OCc2c(-c3ccc(Cl)cc3)nsc2C(F)(F)F)c(F)c1F [Cpd 116, 3-(4-((3-(4-chlorophenyl)-5-(trifluoromethyl)isothiazol-4-yl)methoxy)-2,3,5-trifluorophenyl)propanoic acid]
31 nM | 28 nM | 3-(4-[[3-(4-ethylphenyl)-5-(trifluoromethyl)-1,2-thiazol-4-yl]methoxy]-1-benzothiophen-7-yl)propanoic acid [Cpd 92]
162 nM | 261 nM | CC(Cc1cc(F)c(OCc2c(-c3ccc(Cl)cc3)nsc2C(F)(F)F)c(F)c1)C(=O)O (centres unmarked) [Cpd 108, 3-(4-[[3-(4-chlorophenyl)-5-(trifluoromethyl)-1,2-thiazol-4-yl]methoxy]-3,5-difluorophenyl)-2-methylpropanoic acid]
100 nM | 141 nM | Cc1c(CCC(=O)O)ccc(OCc2c(-c3ccc(Cl)cc3)nsc2C(F)(F)F)c1C [Cpd 142, 3-(4-((3-(4-chlorophenyl)-5-(trifluoromethyl)isothiazol-4-yl)methoxy)-2,3-dimethylphenyl)propanoic acid]
68 nM | 97 nM | 3-(4-[[3-(4-ethylphenyl)-5-(trifluoromethyl)-1,2-thiazol-4-yl]methoxy]-3,5-difluorophenyl)propanoic acid [Cpd 70]
322 nM | 431 nM | 3-(4-[[3-(4-chlorophenyl)-5-(trifluoromethyl)-1,2-thiazol-4-yl]methoxy]-3-methylphenyl)propanoic acid [Cpd 235]
54 nM | 156 nM | CCc1cc(CCC(=O)O)ccc1OCc1c(-c2ccc(Cl)cc2)nsc1C(F)(F)F [Cpd 162, 3-(4-[[3-(4-chlorophenyl)-5-(trifluoromethyl)-1,2-thiazol-4-yl]methoxy]-3-ethylphenyl)propanoic acid]
87 nM | 59 nM | OCC#Cc1cc(F)c(OCc2c(-c3ccc(Cl)cc3)nsc2C(F)(F)F)c(F)c1 [Cpd 213, 3-(4-[[3-(4-chlorophenyl)-5-(trifluoromethyl)-1,2-thiazol-4-yl]methoxy]-3,5-difluorophenyl)prop-2-yn-1-ol]
183 nM | 183 nM | O=C(O)CCc1c(F)c(F)c(OCc2c(-c3ccc(Cl)cc3)nsc2C(F)(F)F)c(F)c1F [Cpd 152, 3-(4-((3-(4-chlorophenyl)-5-(trifluoromethyl)isothiazol-4-yl)methoxy)-2,3,5,6-tetrafluorophenyl)propanoic acid]
104 nM | 189 nM | O=C(O)CCc1cc(F)c(OCc2c(-c3ncc(Cl)cc3F)nsc2C(F)(F)F)c(F)c1 [Cpd 153, 3-(4-((3-(5-chloro-3-fluoropyridin-2-yl)-5-(trifluoromethyl)isothiazol-4-yl)methoxy)-3,5-difluorophenyl)propanoic acid]
990 nM | 322 nM | Cc1ccccc1-c1snc(Cl)c1COc1c(F)cc(CCC(=O)O)cc1F [Cpd 193, 3-(4-[[3-chloro-5-(2-methylphenyl)-1,2-thiazol-4-yl]methoxy]-3,5-difluorophenyl)propanoic acid]
161 nM | 114 nM | O=C(O)CCc1cc(F)c(OCc2c(-c3ccc(Cl)c(F)c3)nsc2C(F)(F)F)c(F)c1F [Cpd 138, 3-(4-((3-(4-chloro-3-fluorophenyl)-5-(trifluoromethyl)isothiazol-4-yl)methoxy)-2,3,5-trifluorophenyl)propanoic acid]
409 nM | 252 nM | Cc1c(CCC(=O)O)ccc(OCc2c(-c3ccccc3)nsc2C(F)(F)F)c1C [Cpd 134, 3-(2,3-dimethyl-4-[[3-phenyl-5-(trifluoromethyl)-1,2-thiazol-4-yl]methoxy]phenyl)propanoic acid]
294 nM | 568 nM | Cc1c(CCC(=O)O)ccc(OCc2c(-c3ncc(Cl)cc3F)nsc2C(F)(F)F)c1C [Cpd 180, 3-(4-((3-(5-chloro-3-fluoropyridin-2-yl)-5-(trifluoromethyl)isothiazol-4-yl)methoxy)-2,3-dimethylphenyl)propanoic acid]
 | 40 nM | OCCCc1ccc(OCc2c(Cl)nsc2-c2ccc(Cl)cc2)c(F)c1F [Cpd 102, 3-(4-((3-chloro-5-(4-chlorophenyl)isothiazol-4-yl)methoxy)-2,3-difluorophenyl)propan-1-ol]
